Measurements from patent publication US20170190671A1, “BIS(ARYL)CATECHOL DERIVATIVES AS HERBICIDES” (E I DU PONT DE NEMOURS AND COMPANY, priority 2014, published 2017).

Legend:
Test in all cases: Test C postemergence
Type in all cases: in vivo
[1] = test system: Italian ryegrass (Lolium multiflorum); settings: Lolium multiflorum, post-emergence, 336 h, Postemergence, scale 0 to 100, read-out: Plant response rating, Ryegrass, Italian
Outline: (§1)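 Seeds in loam-sand soil were treated preemergence, and plants at the 1- to 4-leaf stage (2-18 cm) in peat-based medium were sprayed postemergence, with test chemicals in a non-phytotoxic solvent containing surfactant. After 13-15 days in a greenhouse, response was rated visually against controls from 0 (no effect) to 100 (complete control).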

[2] = test system: barnyardgrass (Echinochloa crus-galli); settings: Echinochloa crus-galli, post-emergence, Postemergence, scale 0 to 100, read-out: Plant response rating, Barnyardgrass
Outline: as §1

[3] = test system: blackgrass (Alopecurus myosuroides); settings: Alopecurus myosuroides, post-emergence, 336 h, Postemergence, scale 0 to 100, read-out: Plant response rating, Blackgrass
Outline: as §1

[4] = test system: chickweed (common chickweed, Stellaria media); settings: Stellaria media, post-emergence, Postemergence, scale 0 to 100, read-out: Plant response rating, Chickweed
Outline: as §1

[5] = test system: giant foxtail (Setaria faberii); settings: Setaria faberi, post-emergence, 336 h, Postemergence, scale 0 to 100, read-out: Plant response rating, Foxtail, Giant
Outline: as §1

[6] = test system: johnsongrass (Sorghum halepense); settings: Sorghum halepense, post-emergence, 336 h, Postemergence, scale 0 to 100, read-out: Plant response rating, Johnsongrass
Outline: as §1

[7] = test system: kochia (Kochia scoparia); settings: Bassia scoparia, post-emergence, Postemergence, scale 0 to 100, read-out: Plant response rating, Kochia
Outline: as §1

[8] = test system: large (Lg) crabgrass (Digitaria sanguinalis); settings: Digitaria sanguinalis, post-emergence, 336 h, Postemergence, scale 0 to 100, read-out: Plant response rating, Crabgrass, Large
Outline: as §1

[9] = test system: morningglory (Ipomoea coccinea); settings: Ipomoea, post-emergence, 336 h, Postemergence, scale 0 to 100, read-out: Plant response rating, Morningglory
Outline: as §1

[10] = test system: oilseed rape (Brassica napus); settings: Brassica napus, post-emergence, Postemergence, scale 0 to 100, read-out: Plant response rating, Oilseed Rape
Outline: as §1

[11] = test system: pigweed (Amaranthus retroflexus); settings: Amaranthus retroflexus, post-emergence, 336 h, Postemergence, scale 0 to 100, read-out: Plant response rating, Pigweed
Outline: as §1

[12] = test system: velvetleaf (Abutilon theophrasti); settings: Abutilon theophrasti, post-emergence, Postemergence, scale 0 to 100, read-out: Plant response rating, Velvetleaf
Outline: as §1

[13] = test system: wild oat (Avena fatua); settings: Avena fatua, post-emergence, Postemergence, scale 0 to 100, read-out: Plant response rating, Oat, Wild
Outline: as §1

[14] = test system: winter wheat (Triticum aestivum); settings: Triticum aestivum, post-emergence, 336 h, Postemergence, scale 0 to 100, read-out: Plant response rating, Wheat
Outline: as §1

[15] = test system: yellow nutsedge (Cyperus esculentus); settings: Cyperus, post-emergence, 336 h, Postemergence, scale 0 to 100, read-out: Plant response rating, Nutsedge, Yellow
Outline: as §1

## Fc1cnc(Oc2c(Br)cccc2Oc2ncc(Cl)cn2)nc1 [Compound 22]
[1]; 31 g ai/ha
  pest or weed control at 31 g/ha: 0%
[1]; 62 g ai/ha
  pest or weed control at 62 g/ha: 0%
[1]; 125 g ai/ha
  pest or weed control at 125 g/ha: 5%
[1]; 250 g ai/ha
  pest or weed control at 250 g/ha: 5%
[2]; 31 g ai/ha
  pest or weed control at 31 g/ha: 5%
[2]; 62 g ai/ha
  pest or weed control at 62 g/ha: 5%
[2]; 125 g ai/ha
  pest or weed control at 125 g/ha: 15%
[2]; 250 g ai/ha
  pest or weed control at 250 g/ha: 10%
[3]; 31 g ai/ha
  pest or weed control at 31 g/ha: 5%
[3]; 62 g ai/ha
  pest or weed control at 62 g/ha: 5%
[3]; 125 g ai/ha
  pest or weed control at 125 g/ha: 5%
[3]; 250 g ai/ha
  pest or weed control at 250 g/ha: 10%
[4]; 31 g ai/ha
  pest or weed control at 31 g/ha: 50%
[4]; 62 g ai/ha
  pest or weed control at 62 g/ha: 50%
[4]; 125 g ai/ha
  pest or weed control at 125 g/ha: 55%
[4]; 250 g ai/ha
  pest or weed control at 250 g/ha: 80%
[5]; 31 g ai/ha
  pest or weed control at 31 g/ha: 5%
[5]; 62 g ai/ha
  pest or weed control at 62 g/ha: 5%
[5]; 125 g ai/ha
  pest or weed control at 125 g/ha: 10%
[5]; 250 g ai/ha
  pest or weed control at 250 g/ha: 20%
[6]; 31 g ai/ha
  pest or weed control at 31 g/ha: 0%
[6]; 62 g ai/ha
  pest or weed control at 62 g/ha: 0%
[6]; 125 g ai/ha
  pest or weed control at 125 g/ha: 5%
[6]; 250 g ai/ha
  pest or weed control at 250 g/ha: 5%
[7]; 31 g ai/ha
  pest or weed control at 31 g/ha: 45%
[7]; 62 g ai/ha
  pest or weed control at 62 g/ha: 60%
[7]; 125 g ai/ha
  pest or weed control at 125 g/ha: 85%
[7]; 250 g ai/ha
  pest or weed control at 250 g/ha: 90%
[8]; 31 g ai/ha
  pest or weed control at 31 g/ha: 5%
[8]; 62 g ai/ha
  pest or weed control at 62 g/ha: 15%
[8]; 125 g ai/ha
  pest or weed control at 125 g/ha: 25%
[8]; 250 g ai/ha
  pest or weed control at 250 g/ha: 20%
[9]; 31 g ai/ha
  pest or weed control at 31 g/ha: 80%
[9]; 62 g ai/ha
  pest or weed control at 62 g/ha: 70%
[9]; 125 g ai/ha
  pest or weed control at 125 g/ha: 85%
[9]; 250 g ai/ha
  pest or weed control at 250 g/ha: 80%
[10]; 31 g ai/ha
  plant injury at 31 g/ha: 40%
[10]; 62 g ai/ha
  plant injury at 62 g/ha: 40%
[10]; 125 g ai/ha
  plant injury at 125 g/ha: 60%
[10]; 250 g ai/ha
  plant injury at 250 g/ha: 35%
[11]; 31 g ai/ha
  pest or weed control at 31 g/ha: 75%
[11]; 62 g ai/ha
  pest or weed control at 62 g/ha: 85%
[11]; 125 g ai/ha
  pest or weed control at 125 g/ha: 90%
[11]; 250 g ai/ha
  pest or weed control at 250 g/ha: 100%
[12]; 31 g ai/ha
  pest or weed control at 31 g/ha: 30%
[12]; 62 g ai/ha
  pest or weed control at 62 g/ha: 65%
[12]; 125 g ai/ha
  pest or weed control at 125 g/ha: 70%
[12]; 250 g ai/ha
  pest or weed control at 250 g/ha: 70%
[13]; 31 g ai/ha
  pest or weed control at 31 g/ha: 0%
[13]; 62 g ai/ha
  pest or weed control at 62 g/ha: 5%
[13]; 125 g ai/ha
  pest or weed control at 125 g/ha: 10%
[13]; 250 g ai/ha
  pest or weed control at 250 g/ha: 15%
[14]; 31 g ai/ha
  plant injury at 31 g/ha: 0%
[14]; 62 g ai/ha
  plant injury at 62 g/ha: 0%
[14]; 125 g ai/ha
  plant injury at 125 g/ha: 0%
[14]; 250 g ai/ha
  plant injury at 250 g/ha: 0%
[15]; 31 g ai/ha
  pest or weed control at 31 g/ha: 5%
[15]; 62 g ai/ha
  pest or weed control at 62 g/ha: 5%
[15]; 125 g ai/ha
  pest or weed control at 125 g/ha: 10%
[15]; 250 g ai/ha
  pest or weed control at 250 g/ha: 10%
